{"source": "patent US12281080B2", "about": "“Quinoline-based compounds and methods of inhibiting CDK8/19” (University of South Carolina, priority 2018, dated 2025)", "key": {"[1]": {"target": "ABL1(F317I)-nonphosphorylated (Homo sapiens (Human), UniProt P00519, F317I)", "sequence (P00519 whole entry F317I)": "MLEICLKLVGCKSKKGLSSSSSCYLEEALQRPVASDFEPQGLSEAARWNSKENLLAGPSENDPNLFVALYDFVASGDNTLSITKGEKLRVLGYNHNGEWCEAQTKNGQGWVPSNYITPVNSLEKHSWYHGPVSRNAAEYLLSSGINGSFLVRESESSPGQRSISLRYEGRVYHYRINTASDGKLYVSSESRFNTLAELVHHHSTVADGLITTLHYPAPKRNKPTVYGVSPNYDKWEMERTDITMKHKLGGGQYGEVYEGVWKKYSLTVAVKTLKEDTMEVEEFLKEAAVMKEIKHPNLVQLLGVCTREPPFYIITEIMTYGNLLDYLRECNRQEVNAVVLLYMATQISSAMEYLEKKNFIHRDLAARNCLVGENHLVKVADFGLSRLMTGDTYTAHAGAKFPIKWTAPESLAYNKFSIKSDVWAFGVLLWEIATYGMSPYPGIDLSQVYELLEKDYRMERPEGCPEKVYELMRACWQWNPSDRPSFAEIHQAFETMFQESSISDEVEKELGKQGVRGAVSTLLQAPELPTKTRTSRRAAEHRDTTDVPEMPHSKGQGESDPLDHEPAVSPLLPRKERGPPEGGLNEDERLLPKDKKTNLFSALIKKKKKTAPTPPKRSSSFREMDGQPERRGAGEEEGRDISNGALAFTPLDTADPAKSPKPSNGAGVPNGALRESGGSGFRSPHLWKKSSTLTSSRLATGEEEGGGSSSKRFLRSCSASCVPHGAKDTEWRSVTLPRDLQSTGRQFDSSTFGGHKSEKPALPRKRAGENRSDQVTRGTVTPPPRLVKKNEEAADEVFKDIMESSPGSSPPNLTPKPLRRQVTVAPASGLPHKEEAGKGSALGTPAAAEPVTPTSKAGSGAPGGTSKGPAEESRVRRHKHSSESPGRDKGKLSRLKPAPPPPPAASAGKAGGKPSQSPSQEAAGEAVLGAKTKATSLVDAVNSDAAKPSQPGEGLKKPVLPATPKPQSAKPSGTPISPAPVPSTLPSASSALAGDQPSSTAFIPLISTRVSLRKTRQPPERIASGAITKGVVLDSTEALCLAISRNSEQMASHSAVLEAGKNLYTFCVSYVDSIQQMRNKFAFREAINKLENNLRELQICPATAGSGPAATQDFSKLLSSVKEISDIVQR", "test": "KINOMEscan scanMAX", "format": "binding", "conditions": "2000 nM; read-out: Percent Control"}, "ACVR1": {"target": "ACVR1 (Homo sapiens (Human), UniProt Q04771)", "test": "KINOMEscan scanMAX", "format": "binding", "conditions": "2000 nM; read-out: Percent Control"}, "ALK(C1156Y)": {"target": "ALK(C1156Y) (Homo sapiens (Human), UniProt Q9UM73, C1156Y)", "test": "KINOMEscan scanMAX", "format": "binding", "conditions": "2000 nM; read-out: Percent Control"}, "ARK5 (NUAK1)": {"target": "ARK5 (NUAK1) (Homo sapiens (Human), UniProt O60285)", "sequence (O60285 whole entry)": "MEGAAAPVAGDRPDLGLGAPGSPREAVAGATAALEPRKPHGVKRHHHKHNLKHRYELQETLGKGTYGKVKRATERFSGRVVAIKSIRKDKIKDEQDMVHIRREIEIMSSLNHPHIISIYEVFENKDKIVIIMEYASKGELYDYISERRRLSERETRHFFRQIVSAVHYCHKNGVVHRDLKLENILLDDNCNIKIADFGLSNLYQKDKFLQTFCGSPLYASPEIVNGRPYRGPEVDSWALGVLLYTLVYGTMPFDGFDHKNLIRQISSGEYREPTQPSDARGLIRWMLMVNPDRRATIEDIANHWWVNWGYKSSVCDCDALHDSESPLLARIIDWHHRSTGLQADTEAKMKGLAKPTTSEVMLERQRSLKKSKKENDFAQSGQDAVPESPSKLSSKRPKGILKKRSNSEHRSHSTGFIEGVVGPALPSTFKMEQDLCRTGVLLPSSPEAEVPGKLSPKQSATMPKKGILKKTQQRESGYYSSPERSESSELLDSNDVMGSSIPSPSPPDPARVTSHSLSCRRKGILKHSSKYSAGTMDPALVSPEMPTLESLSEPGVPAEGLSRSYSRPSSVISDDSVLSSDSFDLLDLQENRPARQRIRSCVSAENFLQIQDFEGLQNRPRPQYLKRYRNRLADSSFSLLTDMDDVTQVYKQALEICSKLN", "test": "KINOMEscan scanMAX", "format": "binding", "conditions": "2000 nM; read-out: Percent Control"}, "BUB1": {"target": "BUB1 (Homo sapiens (Human), UniProt O43683)", "test": "KINOMEscan scanMAX", "format": "binding", "conditions": "2000 nM; read-out: Percent Control"}, "CAMKK2": {"target": "CAMKK2 (Homo sapiens (Human), UniProt Q96RR4)", "test": "KINOMEscan scanMAX", "format": "binding", "conditions": "2000 nM; read-out: Percent Control"}, "CLK2": {"target": "CLK2 (Homo sapiens (Human), UniProt P49760)", "sequence (P49760 whole entry)": "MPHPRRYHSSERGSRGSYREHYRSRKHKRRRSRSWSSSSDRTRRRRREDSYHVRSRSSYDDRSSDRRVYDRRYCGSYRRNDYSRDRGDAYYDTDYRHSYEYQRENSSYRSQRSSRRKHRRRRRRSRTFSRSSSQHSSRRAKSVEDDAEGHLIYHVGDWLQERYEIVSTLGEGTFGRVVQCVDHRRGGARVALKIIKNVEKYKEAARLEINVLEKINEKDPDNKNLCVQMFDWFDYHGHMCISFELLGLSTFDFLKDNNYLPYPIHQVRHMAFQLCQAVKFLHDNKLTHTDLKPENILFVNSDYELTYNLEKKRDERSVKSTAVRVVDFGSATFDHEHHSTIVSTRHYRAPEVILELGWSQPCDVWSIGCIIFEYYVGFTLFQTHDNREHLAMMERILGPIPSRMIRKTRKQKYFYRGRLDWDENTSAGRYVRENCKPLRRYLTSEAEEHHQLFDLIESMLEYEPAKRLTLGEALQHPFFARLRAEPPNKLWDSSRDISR", "test": "KINOMEscan scanMAX", "format": "binding", "conditions": "2000 nM; read-out: Percent Control"}, "CSF1R-autoinhibited": {"target": "CSF1R-autoinhibited (Homo sapiens (Human), UniProt P07333)", "sequence (P07333 539-972 limits assumed)": "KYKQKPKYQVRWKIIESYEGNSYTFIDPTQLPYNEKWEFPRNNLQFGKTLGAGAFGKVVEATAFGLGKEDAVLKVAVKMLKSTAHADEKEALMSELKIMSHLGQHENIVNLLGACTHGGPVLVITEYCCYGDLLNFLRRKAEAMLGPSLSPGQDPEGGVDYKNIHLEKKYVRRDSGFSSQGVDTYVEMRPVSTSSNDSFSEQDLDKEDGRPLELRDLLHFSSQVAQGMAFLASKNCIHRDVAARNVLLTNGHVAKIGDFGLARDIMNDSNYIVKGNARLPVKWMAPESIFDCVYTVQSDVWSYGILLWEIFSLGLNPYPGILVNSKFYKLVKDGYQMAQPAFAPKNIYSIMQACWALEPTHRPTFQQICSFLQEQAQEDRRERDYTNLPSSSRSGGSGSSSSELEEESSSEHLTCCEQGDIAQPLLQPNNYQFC", "test": "KINOMEscan scanMAX", "format": "binding", "conditions": "2000 nM; read-out: Percent Control"}, "CSNK1A1L": {"target": "CSNK1A1L (Homo sapiens (Human), UniProt Q8N752)", "test": "KINOMEscan scanMAX", "format": "binding", "conditions": "2000 nM; read-out: Percent Control"}, "DCAMKL1 (DCLK1)": {"target": "DCAMKL1 (DCLK1) (Homo sapiens (Human), UniProt O15075)", "test": "KINOMEscan scanMAX", "format": "binding", "conditions": "2000 nM; read-out: Percent Control"}, "EGFR(L858R)": {"target": "EGFR(L858R) (Homo sapiens (Human), UniProt P00533, L858R)", "test": "KINOMEscan scanMAX", "format": "binding", "conditions": "2000 nM; read-out: Percent Control"}, "ERBB3": {"target": "ERBB3 (Homo sapiens (Human), UniProt P21860)", "test": "KINOMEscan scanMAX", "format": "binding", "conditions": "2000 nM; read-out: Percent Control"}, "GRK1": {"target": "GRK1 (Homo sapiens (Human), UniProt Q15835)", "test": "KINOMEscan scanMAX", "format": "binding", "conditions": "2000 nM; read-out: Percent Control"}, "IRAK1": {"target": "IRAK1 (Homo sapiens (Human), UniProt P51617)", "test": "KINOMEscan scanMAX", "format": "binding", "conditions": "2000 nM; read-out: Percent Control"}, "LKB1 (STK11)": {"target": "LKB1 (STK11) (Homo sapiens (Human), UniProt Q15831)", "test": "KINOMEscan scanMAX", "format": "binding", "conditions": "2000 nM; read-out: Percent Control"}, "MAPKAPK2": {"target": "MAPKAPK2 (Homo sapiens (Human), UniProt P49137)", "test": "KINOMEscan scanMAX", "format": "binding", "conditions": "2000 nM; read-out: Percent Control"}, "MINK (MINK1)": {"target": "MINK (MINK1) (Homo sapiens (Human), UniProt Q8N4C8)", "test": "KINOMEscan scanMAX", "format": "binding", "conditions": "2000 nM; read-out: Percent Control"}, "NEK7": {"target": "NEK7 (Homo sapiens (Human), UniProt Q8TDX7)", "sequence (Q8TDX7 whole entry)": "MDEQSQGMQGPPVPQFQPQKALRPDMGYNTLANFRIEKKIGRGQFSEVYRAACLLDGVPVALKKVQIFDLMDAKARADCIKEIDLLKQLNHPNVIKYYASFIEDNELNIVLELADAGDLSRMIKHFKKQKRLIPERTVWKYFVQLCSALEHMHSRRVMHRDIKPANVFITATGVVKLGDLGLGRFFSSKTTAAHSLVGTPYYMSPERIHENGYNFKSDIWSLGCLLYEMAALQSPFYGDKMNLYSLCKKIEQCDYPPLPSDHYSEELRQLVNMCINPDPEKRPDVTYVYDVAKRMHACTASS", "test": "KINOMEscan scanMAX", "format": "binding", "conditions": "2000 nM; read-out: Percent Control"}, "PAK3": {"target": "PAK3 (Homo sapiens (Human), UniProt O75914)", "test": "KINOMEscan scanMAX", "format": "binding", "conditions": "2000 nM; read-out: Percent Control"}, "PAK6": {"target": "PAK6 (Homo sapiens (Human), UniProt Q9NQU5)", "test": "KINOMEscan scanMAX", "format": "binding", "conditions": "2000 nM; read-out: Percent Control"}, "PDGFRA": {"target": "PDGFRA (Homo sapiens (Human), UniProt P16234)", "test": "KINOMEscan scanMAX", "format": "binding", "conditions": "2000 nM; read-out: Percent Control"}, "PIK3CA(Q546K)": {"target": "PIK3CA(Q546K) (Homo sapiens (Human), UniProt P42336, Q546K)", "test": "KINOMEscan scanMAX", "format": "binding", "conditions": "2000 nM; read-out: Percent Control"}, "RET": {"target": "RET (Homo sapiens (Human), UniProt P07949)", "sequence (P07949 29-1114)": "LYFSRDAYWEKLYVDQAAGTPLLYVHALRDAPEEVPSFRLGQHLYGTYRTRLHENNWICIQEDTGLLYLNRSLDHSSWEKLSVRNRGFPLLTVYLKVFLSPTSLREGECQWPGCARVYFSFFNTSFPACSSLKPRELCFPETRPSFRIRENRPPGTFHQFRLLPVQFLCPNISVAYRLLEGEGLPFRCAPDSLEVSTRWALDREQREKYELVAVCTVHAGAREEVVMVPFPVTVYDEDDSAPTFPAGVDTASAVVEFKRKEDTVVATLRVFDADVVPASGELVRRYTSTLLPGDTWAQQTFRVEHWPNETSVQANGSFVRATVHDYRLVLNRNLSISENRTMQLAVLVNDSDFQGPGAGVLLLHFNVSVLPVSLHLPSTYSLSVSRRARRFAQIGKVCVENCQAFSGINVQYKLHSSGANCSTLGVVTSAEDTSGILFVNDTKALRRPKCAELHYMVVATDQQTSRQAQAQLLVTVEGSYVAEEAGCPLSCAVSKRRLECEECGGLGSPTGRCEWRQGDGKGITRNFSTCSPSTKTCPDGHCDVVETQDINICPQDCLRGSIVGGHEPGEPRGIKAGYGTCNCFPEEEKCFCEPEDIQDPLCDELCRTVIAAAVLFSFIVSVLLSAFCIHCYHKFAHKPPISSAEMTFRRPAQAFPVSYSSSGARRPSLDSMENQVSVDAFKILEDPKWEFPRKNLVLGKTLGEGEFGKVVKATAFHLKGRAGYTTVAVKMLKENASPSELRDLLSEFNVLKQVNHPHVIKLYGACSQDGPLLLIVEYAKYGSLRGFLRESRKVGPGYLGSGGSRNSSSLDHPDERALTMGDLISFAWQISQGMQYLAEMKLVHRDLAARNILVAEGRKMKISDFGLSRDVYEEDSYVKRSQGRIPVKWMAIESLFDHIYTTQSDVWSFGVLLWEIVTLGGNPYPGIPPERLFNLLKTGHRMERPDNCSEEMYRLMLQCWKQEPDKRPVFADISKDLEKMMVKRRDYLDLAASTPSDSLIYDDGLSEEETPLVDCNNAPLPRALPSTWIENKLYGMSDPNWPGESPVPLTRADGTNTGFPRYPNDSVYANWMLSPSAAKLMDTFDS", "test": "KINOMEscan scanMAX", "format": "binding", "conditions": "2000 nM; read-out: Percent Control"}, "SIK2": {"target": "SIK2 (Homo sapiens (Human), UniProt Q9H0K1)", "sequence (Q9H0K1 whole entry)": "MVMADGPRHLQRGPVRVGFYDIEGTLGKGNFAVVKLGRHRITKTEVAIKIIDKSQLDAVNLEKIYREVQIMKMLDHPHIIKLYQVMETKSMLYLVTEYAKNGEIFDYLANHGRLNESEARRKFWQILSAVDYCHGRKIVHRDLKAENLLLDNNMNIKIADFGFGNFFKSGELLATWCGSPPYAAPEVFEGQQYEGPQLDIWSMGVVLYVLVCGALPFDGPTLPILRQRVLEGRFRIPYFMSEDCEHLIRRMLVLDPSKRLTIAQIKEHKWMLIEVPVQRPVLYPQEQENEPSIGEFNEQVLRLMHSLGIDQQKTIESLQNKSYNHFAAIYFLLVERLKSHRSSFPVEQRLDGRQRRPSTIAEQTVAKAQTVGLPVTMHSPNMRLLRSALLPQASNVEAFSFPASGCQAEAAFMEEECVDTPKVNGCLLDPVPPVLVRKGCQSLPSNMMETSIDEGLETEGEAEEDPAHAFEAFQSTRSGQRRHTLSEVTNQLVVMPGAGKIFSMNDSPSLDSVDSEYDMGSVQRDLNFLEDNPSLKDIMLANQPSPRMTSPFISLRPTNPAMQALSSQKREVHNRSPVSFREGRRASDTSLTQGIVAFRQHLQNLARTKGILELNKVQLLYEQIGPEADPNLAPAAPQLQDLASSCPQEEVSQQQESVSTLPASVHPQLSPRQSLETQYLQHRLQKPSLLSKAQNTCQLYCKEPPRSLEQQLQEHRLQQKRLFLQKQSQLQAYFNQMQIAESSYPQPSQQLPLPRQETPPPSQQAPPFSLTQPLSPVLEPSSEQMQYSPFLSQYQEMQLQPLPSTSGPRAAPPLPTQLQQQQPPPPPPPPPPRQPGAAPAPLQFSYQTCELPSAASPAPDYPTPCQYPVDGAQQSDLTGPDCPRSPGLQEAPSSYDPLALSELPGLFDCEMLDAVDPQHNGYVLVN", "test": "KINOMEscan scanMAX", "format": "binding", "conditions": "2000 nM; read-out: Percent Control"}, "SLK": {"target": "SLK (Homo sapiens (Human), UniProt Q9H2G2)", "test": "KINOMEscan scanMAX", "format": "binding", "conditions": "2000 nM; read-out: Percent Control"}, "STK35": {"target": "STK35 (Homo sapiens (Human), UniProt Q8TDR2)", "test": "KINOMEscan scanMAX", "format": "binding", "conditions": "2000 nM; read-out: Percent Control"}, "TAOK1": {"target": "TAOK1 (Homo sapiens (Human), UniProt Q7L7X3)", "test": "KINOMEscan scanMAX", "format": "binding", "conditions": "2000 nM; read-out: Percent Control"}, "TESK1": {"target": "TESK1 (Homo sapiens (Human), UniProt Q15569)", "test": "KINOMEscan scanMAX", "format": "binding", "conditions": "2000 nM; read-out: Percent Control"}, "TLK1": {"target": "TLK1 (Homo sapiens (Human), UniProt Q9UKI8)", "test": "KINOMEscan scanMAX", "format": "binding", "conditions": "2000 nM; read-out: Percent Control"}, "CXCL1": {"test_system": "CXCL1", "test": "QPCR gene expression in TNFα-treated HEK293 cells", "format": "cell-based, human", "conditions": "Homo sapiens, HEK293; range stated for all three genes", "text": "(§1) Two types of cell-based assays for CDK8/19 inhibition were used to test the efficacy of quinoline quinolone compounds described herein (FIG. 3A). The first cell-based assay, which measures the effects of CDK8/19 inhibitors on RNA levels of CDK8/19-regulated genes by quantitative reverse transcription-PCR (QPCR), is based on the ability of CDK8/19 inhibitors to suppress the induction of NFκB-inducible genes by TNFα and to inhibit basal expression of MYC in human embryonic kidney (HEK) 293 cells, as previously described. In this assay, 293 cells growing in DMEM (High-glucose) media supplemented with 10% FBS are pre-treated with the tested inhibitors or DMSO control for 1 hour and then treated with 10 ng/mL TNFα (an activator of NFκB) for 2 hours (in the presence or absence of the tested inhibitors), followed by RNA extraction and QPCR analysis of RNA expression of specific genes conducted as described (Chen et al., ibid), using housekeeping genes RPL13A and GAPDH as normalization standards. […] All the quinoline derivatives inhibited the expression of all three genes."}, "IL8": {"test_system": "IL8", "test": "QPCR gene expression in TNFα-treated HEK293 cells", "format": "cell-based, human", "conditions": "Homo sapiens, HEK293; range stated for all three genes", "text": "as §1"}, "MYC": {"test_system": "MYC", "test": "QPCR gene expression in TNFα-treated HEK293 cells", "format": "cell-based, human", "conditions": "Homo sapiens, HEK293; range stated for all three genes", "text": "as §1"}, "[2]": {"test": "Mouse pharmacokinetics, intraperitoneal, serum", "format": "in vivo, mice", "method": "[…] Blood samples were collected at different time points (5 mice per time point) and Senexin C concentration in the serum was measured by LC/MS/MS."}}}
{"smiles": "CN1CCN(C(=O)c2ccc3cc(CCNc4ccnc5ccc(C#N)cc45)ccc3c2)CC1", "note": "[compound 6148, 4-((2-(6-(4-methylpiperazine-1-carbonyl)naphthalen-2-yl)ethyl)amino)quinoline-6-carbonitrile]", "values": [{"measurement": "remaining binding at 2 µM", "setting": "[1]", "result": 88, "unit": "%"}, {"measurement": "remaining binding at 2 µM", "setting": "ACVR1", "result": 92, "unit": "%"}, {"measurement": "remaining binding at 2 µM", "setting": "ALK(C1156Y)", "result": 83, "unit": "%"}, {"measurement": "remaining binding at 2 µM", "setting": "ARK5 (NUAK1)", "result": 89, "unit": "%"}, {"measurement": "remaining binding at 2 µM", "setting": "BUB1", "result": 68, "unit": "%"}, {"measurement": "remaining binding at 2 µM", "setting": "CAMKK2", "result": 82, "unit": "%"}, {"measurement": "remaining binding at 2 µM", "setting": "CLK2", "result": 93, "unit": "%"}, {"measurement": "remaining binding at 2 µM", "setting": "CSF1R-autoinhibited", "result": 91, "unit": "%"}, {"measurement": "remaining binding at 2 µM", "setting": "CSNK1A1L", "result": 88, "unit": "%"}, {"measurement": "remaining binding at 2 µM", "setting": "DCAMKL1 (DCLK1)", "result": 63, "unit": "%"}, {"measurement": "remaining binding at 2 µM", "setting": "EGFR(L858R)", "result": 93, "unit": "%"}, {"measurement": "remaining binding at 2 µM", "setting": "ERBB3", "result": 76, "unit": "%"}, {"measurement": "remaining binding at 2 µM", "setting": "GRK1", "result": 63, "unit": "%"}, {"measurement": "remaining binding at 2 µM", "setting": "IRAK1", "result": 45, "unit": "%"}, {"measurement": "remaining binding at 2 µM", "setting": "LKB1 (STK11)", "result": 87, "unit": "%"}, {"measurement": "remaining binding at 2 µM", "setting": "MAPKAPK2", "result": 91, "unit": "%"}, {"measurement": "remaining binding at 2 µM", "setting": "MINK (MINK1)", "result": 56, "unit": "%"}, {"measurement": "remaining binding at 2 µM", "setting": "NEK7", "result": 94, "unit": "%"}, {"measurement": "remaining binding at 2 µM", "setting": "PAK3", "result": 98, "unit": "%"}, {"measurement": "remaining binding at 2 µM", "setting": "PAK6", "result": 90, "unit": "%"}, {"measurement": "remaining binding at 2 µM", "setting": "PDGFRA", "result": 97, "unit": "%"}, {"measurement": "remaining binding at 2 µM", "setting": "PIK3CA(Q546K)", "result": 70, "unit": "%"}, {"measurement": "remaining binding at 2 µM", "setting": "RET", "result": 100, "unit": "%"}, {"measurement": "remaining binding at 2 µM", "setting": "SIK2", "result": 100, "unit": "%"}, {"measurement": "remaining binding at 2 µM", "setting": "SLK", "result": 92, "unit": "%"}, {"measurement": "remaining binding at 2 µM", "setting": "STK35", "result": 100, "unit": "%"}, {"measurement": "remaining binding at 2 µM", "setting": "TAOK1", "result": 76, "unit": "%"}, {"measurement": "remaining binding at 2 µM", "setting": "TESK1", "result": 96, "unit": "%"}, {"measurement": "remaining binding at 2 µM", "setting": "TLK1", "result": 94, "unit": "%"}, {"measurement": "IC50", "setting": "CXCL1", "result": "25 to 35", "unit": "nM"}, {"measurement": "IC50", "setting": "IL8", "result": "25 to 35", "unit": "nM"}, {"measurement": "IC50", "setting": "MYC", "result": "25 to 35", "unit": "nM"}, {"measurement": "elimination rate k", "setting": "[2]; i.p. 19 mg/kg, female FVB mice", "result": 0.94, "unit": "h⁻¹"}, {"measurement": "t1/2", "setting": "[2]; i.p. 19 mg/kg, female FVB mice", "result": 44.4, "unit": "min"}, {"measurement": "Half-life higher than Senexin B", "setting": "[2]; i.p., mice", "result": "> 4", "unit": "fold"}, {"measurement": "half-life", "setting": "[2]; mouse, serum, ip, i.p. 19 mg/kg, female FVB mice", "result": 44.4, "unit": "min"}, {"measurement": "AUC", "setting": "[2]; mouse, serum, ip, i.p. 19 mg/kg, female FVB mice, read-out: AUC", "result": 1570, "unit": "ng·h/mL"}, {"measurement": "Cmax", "setting": "[2]; mouse, serum, ip, i.p. 19 mg/kg, female FVB mice, read-out: Cmax", "result": 1160, "unit": "ng/mL"}, {"measurement": "bioavailability", "setting": "[2]; mouse, serum, ip, i.p. 19 mg/kg, female FVB mice, read-out: bioavailability (F %)", "result": 73, "unit": "%"}]}
